These results are taken from US11001891B2, “Methods for treating Parkinson's disease” (Berg LLC, priority 2016, dated 2021).

Each structure is given as a SMILES string.

What all share (type): cell-based, human
One series relates to PIG3. Put plainly: PIG3 expression in patient-specific iPSCs after neurotoxin treatment. The note with it: rotenone 0-1,000 nm or 6-OHDA 0.5-10 μM, 48 hours. Here is the method:
(§1) For the experiment, patient-specific iPSCs were prepared by reprogramming primary dermal fibroblasts harvested from the upper arm of PD+ and unaffected donors using a non-integrating, self-replicating polycistronic RNA construct containing the reprogramming factors OCT4, SOX2, KLF4 and GLIS1 (Millipore, Simplicon™) according to published protocols. […] Following the treatment, the amount of PIG3 protein in the cells and cell viability were assessed.

In series [1] the test system is patient-specific induced pluripotent stem cells (iPSCs). The note with it: rotenone 0-1,000 nm or 6-OHDA 0.5-10 μM, 48 hours. Here is the method: as §1
In a further series the test system is PIG3 protein. Nature of the series: Time course of PIG3 protein in SH-SY5Y cells after 6-OHDA (immunoblot). Particulars: 50 nm 6-OHDA, normalized to actin. As to the method:
The purpose of this experiment was to access the effect of overexpression of PIG3 on cell viability and reactive oxygen species (ROS) production. To this end, SH-SY5Y cells stably overexpressing the PIG3 open reading frame (PIG3 ORF) were created and characterized by determining their viability, ROS burden and the amount of PIG3 protein produced in response to treatment with 50 nM 6-OHDA. Cell viability was measured relative to the empty vector control, pLOC (CTRL). ROS burden was estimated using DCFDA fluorescence measured by flow cytometry; and the amount of PIG3 protein was measured by immunoblotting and normalizing the densitometry of immunoreactivity to the amount of actin as a loading control.

Another series has as its system LRRK2-PD neurons. Particulars: iPSC-derived LRRK2-PD neurons, increasing concentrations of neurotoxin. As to the method:
IPSCs were prepared from LRRK2-PD fibroblasts and then differentiated towards excitatory cortical neurons as described in the above examples and following published protocols (e.g., Shi et al., Nat. Neurosci. 2012, 15(3):10.1038; Chamber et al. Nat. Biotechnology, 2009, 27:275-280, the entire contents of which are incorporated herein by reference).

Series [2] deals with SH-SY5Y cells. Put plainly: PIG3 protein, cleaved PARP and cell death in SH-SY5Y cells treated with 6-OHDA. Particulars: 6-OHDA 0, 50 and 100 μm, 48 hours. Here is the method: This experiment was similar to the experiment described in Example 1, except that the in vitro chemical model of Parkinson's Disease involved treatment of SH-SY5Y cells with oxidopamine, also known as 6-hydroxydopamine (6-OHDA) or 2,4,5-trihydroxyphenethylamine 6-OHDA is known to have a selective adverse effect on dopaminergic and noradrenergic neurons. The structure of 6-OHDA is shown below:
For the experiment, SH-SY5Y cells were treated with 6-OHDA at a concentration of 0, 50 and 100 μm for 48 hours. Following the treatment, the amount of PIG3 protein in the cells and the extent of SH-SY5Y cell death were assessed. Cells treated with etoposide were used as a positive control. Apoptosis in the treated cells was assessed by measuring the amount of cleaved poly(ADP-ribose) polymerase (PARP).

Series [3] has as its system SH-SY5Y cells. Put plainly: Cell death in SH-SY5Y cells treated with rotenone or 6-OHDA (in vitro chemical model of Parkinson's Disease). The note with it: 48 hours rotenone or 6-OHDA in the presence vs absence of inhibitor. The text has this:
The purpose of this experiment was to test the effect of inhibiting the expression of PIG3 in an in vitro chemical model of Parkinson's Disease. For this experiment, an siRNA capable of inhibiting the expression of PIG3 (PIG3 siRNA) was synthesized and tested in SH-SY5Y cells against a non-targeting […] (NTC).
(§2) The purpose of this experiment was to test the effect of inhibiting the p38 MAPK activity on cell death and the expression of PIG3 in in vitro chemical model of Parkinson's Disease. […] SH-SY5Y cell death and PIG3 mRNA expression were assessed following treatment.
(§3) The purpose of this experiment was to test the effect of inhibiting LRRK2 activity on cell death and the expression of PIG3 in in vitro chemical model of Parkinson's Disease. […] SH-SY5Y cell death and PIG3 mRNA expression were assessed following treatment.

The test system of another series is PIG3 mRNA. Nature of the series: PIG3 mRNA expression in SH-SY5Y cells treated with rotenone or 6-OHDA in presence of kinase inhibitor. Particulars: 48 hours rotenone or 6-OHDA in the presence vs absence of inhibitor. Here is the method: as §2, §3
Series [4] concerns SH-SY5Y cells. Nature of the series: PIG3 protein, cleaved PARP and cell death in SH-SY5Y cells treated with rotenone. Particulars: rotenone 0, 50, 100 and 500 nm, 48 hours, immunoblot. Here is the method:
The purpose of this experiment was to evaluate the expression of PIG3 and cell viability in an in vitro chemical model of Parkinson's Disease.
Following the treatment, the amount of PIG3 protein in the cells and the extent of SH-SY5Y cell death were assessed. Cells treated with etoposide, which is known to induce apoptosis, were used as a positive control. Apoptosis in the treated cells was assessed by measuring the amount of cleaved poly(ADP-ribose) polymerase
For orientation: Immunoblotting shows a protein as a band on a membrane.

On to `NCCc1cc(O)c(O)cc1O` [6-OHDA, 2,4,5-trihydroxyphenethylamine], for which the PIG3 expression result in the series with PIG3 is “increased PIG3 expression”. The iPSC viability result in series [1] is reported as “decreased viability”. Further, the “relative amounts of PIG3 protein at different times after treatment” value with PIG3 protein was “time-dependent accumulation of PIG3 protein”. In the series with LRRK2-PD neurons, the PIG3 protein result was “further increases” and the “cleaved PARP expression” value is recorded as “further increases”. Also, in the series on SH-SY5Y cells [2], the “apoptosis (cleaved PARP) / cell death” value is on record as 6-OHDA-induced apoptosis. The “amount of PIG3 protein” value in the series with SH-SY5Y cells [2] (immunoblot) is recorded as “increased as a function of increasing concentration of 6-OHDA”.
Turning to `COc1cc(C(=O)N2CCC(N3CCN(C)CC3)CC2)ccc1Nc1ncc2c(n1)N(C)c1ccccc1C(=O)N2C` [LRRK2-IN-1], the cell death result in the series on SH-SY5Y cells [3] is recorded as “decreased cell death”. In addition, the “PIG3 mRNA expression” value in the series with PIG3 mRNA is “decreased PIG3 mRNA expression”.
The matching figures for `C[S+]([O-])c1ccc(-c2nc(-c3ccncc3)c(-c3ccc(F)cc3)[nH]2)cc1` (centres unmarked) [SB203580]: “decreased cell death” and “decreased PIG3 mRNA expression”.
As for `C=C(C)[C@H]1Cc2c(ccc3c2O[C@@H]2COc4cc(OC)c(OC)cc4[C@@H]2C3=O)O1` [rotenone], the PIG3 expression result in the series on PIG3 is “increased PIG3 expression”. Further, in the series with SH-SY5Y cells [4], the “amount of PIG3 protein” value is on record as “increased as a function of increasing concentration of rotenone”. In the series on LRRK2-PD neurons, the PIG3 protein entry was “further increases”.
